Patent publication US20250326749A1, “COMPOUNDS, COMPOSITIONS, AND METHODS OF USING THEREOF” (Sionna Therapeutics Inc., priority 2022, published 2025)

target: T1, ΔF508-CFTR (Homo sapiens, UniProt P13569, DEL508-508); assay: ΔF508-CFTR-HRP trafficking assay (cell surface expression of ΔF508-CFTR); format: cell-based; conditions: CFSMEo- cells transiently transfected with ΔF508-CFTR-HRP; test agent 3 μM, 48 h; HRP chemiluminescence
T1 construct: expressed in transfected cells; host or cells: CFSMEo- (human CF submucosal gland epithelial cells, ΔF508/Q2X), transiently transfected by nucleofection
T1 sequence (P13569 with tags, fused parts or gaps DEL508-508): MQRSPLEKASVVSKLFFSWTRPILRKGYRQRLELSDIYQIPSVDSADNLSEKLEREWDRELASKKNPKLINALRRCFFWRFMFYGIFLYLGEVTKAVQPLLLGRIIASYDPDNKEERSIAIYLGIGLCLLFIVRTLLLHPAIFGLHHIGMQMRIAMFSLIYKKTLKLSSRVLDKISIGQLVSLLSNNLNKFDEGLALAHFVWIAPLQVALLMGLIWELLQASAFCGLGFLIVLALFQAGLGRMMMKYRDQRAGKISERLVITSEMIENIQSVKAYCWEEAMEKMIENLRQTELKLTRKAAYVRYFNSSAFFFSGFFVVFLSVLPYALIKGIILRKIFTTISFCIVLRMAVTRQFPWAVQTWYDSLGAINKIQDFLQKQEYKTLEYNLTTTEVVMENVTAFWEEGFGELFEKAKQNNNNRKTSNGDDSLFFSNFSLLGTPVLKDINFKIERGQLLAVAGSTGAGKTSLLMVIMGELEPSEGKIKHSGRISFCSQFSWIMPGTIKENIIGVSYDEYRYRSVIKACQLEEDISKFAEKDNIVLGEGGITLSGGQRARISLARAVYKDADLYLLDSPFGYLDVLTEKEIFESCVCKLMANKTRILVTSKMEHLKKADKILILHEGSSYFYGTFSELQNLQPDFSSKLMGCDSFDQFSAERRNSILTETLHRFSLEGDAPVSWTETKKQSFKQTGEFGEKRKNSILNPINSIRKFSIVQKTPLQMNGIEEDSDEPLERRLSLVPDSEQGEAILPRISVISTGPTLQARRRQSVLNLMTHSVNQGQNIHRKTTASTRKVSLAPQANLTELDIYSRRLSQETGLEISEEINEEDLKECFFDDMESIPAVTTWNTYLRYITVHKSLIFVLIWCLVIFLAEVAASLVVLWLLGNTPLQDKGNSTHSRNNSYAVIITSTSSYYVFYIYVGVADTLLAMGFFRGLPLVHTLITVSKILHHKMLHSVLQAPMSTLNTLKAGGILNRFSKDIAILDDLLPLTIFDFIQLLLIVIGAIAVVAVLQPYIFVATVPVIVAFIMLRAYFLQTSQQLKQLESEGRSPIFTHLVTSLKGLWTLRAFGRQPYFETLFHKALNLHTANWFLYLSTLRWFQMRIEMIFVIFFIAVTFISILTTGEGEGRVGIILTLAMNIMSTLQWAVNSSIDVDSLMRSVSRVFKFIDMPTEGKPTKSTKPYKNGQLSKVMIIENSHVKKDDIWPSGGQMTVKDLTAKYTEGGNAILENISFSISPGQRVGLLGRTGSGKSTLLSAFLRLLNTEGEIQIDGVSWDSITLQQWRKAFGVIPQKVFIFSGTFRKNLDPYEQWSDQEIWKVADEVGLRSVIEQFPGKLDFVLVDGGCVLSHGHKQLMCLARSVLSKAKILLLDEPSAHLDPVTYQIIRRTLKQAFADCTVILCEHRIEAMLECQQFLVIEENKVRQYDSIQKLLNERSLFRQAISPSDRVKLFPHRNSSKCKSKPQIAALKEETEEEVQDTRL
How it was run: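 Surface-expressed ΔF508-CFTR measured via extracellular HRP tag: cell-impermeable chemiluminescent substrate, 5 min, signal normalized to 0.3% DMSO vehicle.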

RLUs: ΔF508-CFTR-HRP trafficking data normalized to the vehicle treated control (0.3% DMSO) | Structure (SMILES)
C (RLU 0.0 μM-3.5 μM) | C[C@H](Oc1cccc(-n2nc(C(F)(F)F)c3c2C(S(=O)(=O)c2ccc(C(=O)O)cc2)CCC3)c1)c1ccc2c(c1)OC(F)(F)O2 (stereo partly drawn) [Example 71, 4-[[1-[3-[(1S)-1-(2,2-difluoro-1,3-benzodioxol-5-yl)ethoxy]phenyl]-3-(trifluoromethyl)-4,5,6,7-tetrahydroindazol-7-yl]sulfonyl]benzoic acid]
B (RLU 3.5 μM-5.0 μM) | CC(Sc1cccc(-n2nc(C(F)(F)F)c3c2C(Oc2ccc(C(=O)O)cc2)CCC3)c1)c1ccc2c(c1)OC(F)(F)O2 (stereo not drawn) [Example 116, 4-[[1-[3-[1-(2,2-difluoro-1,3-benzodioxol-5-yl)ethylsulfanyl]phenyl]-3-(trifluoromethyl)-4,5,6,7-tetrahydroindazol-7-yl]oxy]benzoic acid]
C (RLU 0.0 μM-3.5 μM) | CC(c1ccc2c(c1)OC(F)(F)O2)[S+]([O-])c1cccc(-n2nc(C(F)(F)F)c3c2C(Oc2ccc(C(=O)O)cc2)CCC3)c1 (stereo not drawn) [Example 117, 4-[[1-[3-[1-(2,2-difluoro-1,3-benzodioxol-5-yl)ethylsulfinyl]phenyl]-3-(trifluoromethyl)-4,5,6,7-tetrahydroindazol-7-yl]oxy]benzoic acid]
C (RLU 0.0 μM-3.5 μM) | CC(c1ccc2c(c1)OC(F)(F)O2)S(=O)(=O)c1cccc(-n2nc(C(F)(F)F)c3c2C(Oc2ccc(C(=O)O)cc2)CCC3)c1 (stereo not drawn) [Example 118, 4-[[1-[3-[1-(2,2-difluoro-1,3-benzodioxol-5-yl)ethylsulfonyl]phenyl]-3-(trifluoromethyl)-4,5,6,7-tetrahydroindazol-7-yl]oxy]benzoic acid]
C (RLU 0.0 μM-3.5 μM) | CC(c1ccc2c(c1)OC(F)(F)O2)C1(c2cc(-n3nc(C(F)(F)F)c4c3C(Oc3ccc(C(=O)O)cc3)CCC4)ccn2)COC1 (stereo not drawn) [Example 119, 4-[[1-[2-[3-[1-(2,2-difluoro-1,3-benzodioxol-5-yl)ethyl]oxetan-3-yl]-4-pyridyl]-3-(trifluoromethyl)-4,5,6,7-tetrahydroindazol-7-yl]oxy]benzoic]
B (RLU 3.5 μM-5.0 μM) | C[C@H](Oc1cccc(-n2nc(C(F)(F)F)c3c2C(S(=O)(=O)N2CCC(C(=O)O)CC2)CCC3)c1)c1ccc2c(c1)OC(F)(F)O2 (stereo partly drawn) [Example 123]

Second part, the molecule before the results:

Structure (SMILES) | RLUs: ΔF508-CFTR-HRP trafficking data normalized to the vehicle treated control (0.3% DMSO)
C[C@@H](Oc1cc(-n2nc(C(F)(F)F)c3c2C(OC24CC(C(=O)O)(C2)C4)CCC3)ccn1)c1ccc2c(c1)OC(F)(F)O2 (stereo partly drawn) [Example 40] | A (RLU 5.0 μM-10 μM)
C[C@@H](Oc1cccc(-n2nc(C(F)(F)F)c3c2C(OC24CC(C(=O)O)(C2)C4)CCC3)c1)c1ccc2c(c1)OC(F)(F)O2 (stereo partly drawn) [Example 41, 3-[[1-[3-[(1R)-1-(2,2-difluoro-1,3-benzodioxol-5-yl)ethoxy]phenyl]-3-(trifluoromethyl)-4,5,6,7-tetrahydroindazol-7-yl]oxy]bicyclo[1.1.1]pentane-1-carboxylic acid] | A (RLU 5.0 μM-10 μM)
C[C@H](Oc1cc(-n2nc(C(F)(F)F)c3c2[C@@H](OC24CC(C(=O)O)(C2)C4)CCC3)ccn1)c1ccc2c(c1)OC(F)(F)O2 [Example 51] | A (RLU 5.0 μM-10 μM)
C[C@H](Oc1cc(-n2nc(C(F)(F)F)c3c2[C@H](OC24CC(C(=O)O)(C2)C4)CCC3)ccn1)c1ccc2c(c1)OC(F)(F)O2 [Example 52, 3-[[(7R)-1-[2-[(1S)-1-(2,2-difluoro-1,3-benzodioxol-5-yl)ethoxy]-4-pyridyl]-3-(trifluoromethyl)-4,5,6,7-tetrahydroindazol-7-yl]oxy]bicyclo[1.1.1]pentane-1-carboxylic acid] | C (RLU 0.0 μM-3.5 μM)
C[C@H](Oc1cncc(-n2nc(C(F)(F)F)c3c2C(Nc2ccc(C(=O)O)cc2)CCC3)c1)c1ccc2c(c1)OC(F)(F)O2 (stereo partly drawn) [Example 69, 4-[[1-[5-[(1S)-1-(2,2-difluoro-1,3-benzodioxol-5-yl)ethoxy]-3-pyridyl]-3-(trifluoromethyl)-4,5,6,7-tetrahydroindazol-7-yl]amino]benzoic acid] | B (RLU 3.5 μM-5.0 μM)
C[C@H](Oc1cccc(-n2nc(C(F)(F)F)c3c2C(Sc2ccc(C(=O)O)cc2)CCC3)c1)c1ccc2c(c1)OC(F)(F)O2 (stereo partly drawn) [Example 70, 4-((1-(3-((S)-1-(2,2-difluorobenzo[d][1,3]dioxol-5-yl)ethoxy)phenyl)-3-(trifluoromethyl)-4,5,6,7-tetrahydro-1H-indazol-7-yl)thio)benzoic acid] | A (RLU 5.0 μM-10 μM)
